In article PMC9804470, “A Formylglycine‐Peptide for the Site‐Directed Identification of Phosphotyrosine‐Mimetic Fragments” (Chemistry (Weinheim an Der Bergstrasse, Germany), 2022):
“Also recorded” adds a separate entry of the source. Where two headings read alike, the source gives them in different places. Where a SMILES comes first, the peptide text is derived from it. [ ]: non-standard residue; d: D form. The star is where a group is joined. ξ: configuration not given here. X4 = O=S(=O)(Nc1ccc(*)cc1)C(F)(F)F; X1 = O=C(O)Cc1ccc(*)cc1; Dap = NC[C@H](N)C(=O)O; ξDap = NCC(N)C(=O)O

Columns and labels:
PTP1B = target: T1, PTP1B (Homo sapiens, UniProt P18031); assay: Dynamic ligation screening of nucleophilic fragments with formylglycine peptide 3, PTP1B; assay type: biochemical; conditions: 3 100 μM pre-incubated 5 min, fragment 200 μM, 30 min RT before DiFMUP, triplicates
T1 construct: catalytic domain of human PTP1B (amino acids 1–321); His7 (N, cleaved yes); made in house; host or cells: E. coli Rosetta (DE3)
T1 sequence (P18031 1-321): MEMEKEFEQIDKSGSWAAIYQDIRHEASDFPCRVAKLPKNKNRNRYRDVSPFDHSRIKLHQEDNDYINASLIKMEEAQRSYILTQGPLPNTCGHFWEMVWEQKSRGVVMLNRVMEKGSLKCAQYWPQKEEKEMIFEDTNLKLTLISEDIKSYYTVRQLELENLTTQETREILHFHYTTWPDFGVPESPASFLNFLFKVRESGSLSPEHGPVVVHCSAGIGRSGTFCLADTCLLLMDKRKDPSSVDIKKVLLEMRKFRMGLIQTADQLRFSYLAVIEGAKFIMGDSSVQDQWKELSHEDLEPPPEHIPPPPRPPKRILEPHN
Protocol: (§1) Enzyme activity assays of SHP2 and PTP1B: The catalytic activity of SHP2 catalytic domain and PTP1B were monitored using the fluorogenic substrate DiFMUP (6,8‐difluoro‐4‐methylumbelliferyl phosphate). Phosphatase reactions were performed at room temperature in 384‐well black plate, clear flat bottom, low flange, non‐binding surface (Corning, Cat# 3766) using a final volume of 20 μL and the following assay buffer conditions: 50 mM MOPS, pH=6.5, 200 mM NaCl, 50 μM TCEP, 0.03 % Tween‐20 (freshly added prior to each measurement). Test compounds were dissolved in DMSO or buffer at stock concentrations of 50, 20 or 10 mM and serially diluted. Enzyme (5 nM PTP1B or 2.5 nM SHP2 catalytic domain) and different concentrations of the tested compounds were incubated in buffer for 30–60 min at room temperature. Measurements were performed with a final concentration of 2.5 % DMSO unless stated otherwise at 37 °C and were performed in triplicate. Enzymatic reactions were started by adding DiFMUP (Invitrogen, cat# D6567) concentrations matching the experimentally determined KM values of the enzymes of 67 μM (PTP1B) or 72 μM (SHP2). Samples were excited at a wavelength of 360 nm and emitted fluorescence was recorded at 460 for 10 min using a microplate reader (infinite M1000 Pro, Tecan). Initial slope of fluorescence was determined in triplicate and IC50 values were calculated with GraphPad Prism 5. Determined IC50 values were converted into the corresponding KI values applying the Cheng Prusoff equation KI =IC50 /(1+[S]/KM ).
Dynamic ligation screening of nucleophilic fragments with 3: Under assay conditions described above, PTP1B or SHP2 were pre‐incubated with 3 (100 μM) for 5 min. Subsequently, (200 μM) of the respective fragments were added and the resulting mixtures were incubated for 30 min at RT, prior to DiFMUP addition.

[1] = system: HGF‐induced tyrosine phosphorylation of ERK 1/2 in HeLa cells; assay: Western blot of p-ERK in HGF-stimulated HeLa cells; assay type: cell-based; conditions: 1 h treatment; for Effect on HGF‐induced tyrosine phosphorylation of ERK 1/2: Western blot, DMSO control; for Concentration giving (complete) dephosphorylation of Erk / inhibition of Erk phosphorylation: HGF 20 ng/well, Western blot p-ERK
Protocol: Cellular experiments: HeLa cells were cultivated in DMEM buffer with 10 % FCS in 75 cm^2 cell culture flasks at 37 °C, 5 % CO2. At confluency of about 75 %, cells were seeded in a density of 250,000 cells/mL in 6‐well plates and incubated for 24 h. Subsequently, medium was removed and replaced by DMEM buffer with 0.1 % BSA (1 mL per well) and incubated for another 16 h. Hepatocyte growth factor (HGF, 20 ng/well) and test compounds in different final concentrations (1 μL, in DMSO) were added. Control wells received the same amount of DMSO (final concentration 0.1 %) or no addition. Plates were incubated for 1 h, then washed with cold PBS and shaken with lysis buffer (mPer reagent ThermoScientific # 78501 with 1 mM NaF, 2 mM Na3VO4, 25× protease inhibitor) for 5 min. Cell lysates were transferred to Eppendorf cups and centrifuged at 4 °C with 10,000 g for 10 min. […] The blot was incubated with anti‐phospo‐ERK as primary antibody (Cell Signaling # 9106, dilution 1 : 2000 in TBS‐Tween/ 2 % BSA) overnight at 4 °C, washed 3×5 min with TBS‐Tween, and incubated with anti‐mouse IgG‐hrp as secondary antibody (Santa Cruz # sc2031, 1 : 6000 in TBS‐ Tween/ 2 % BSA, RT, 1.5 h). The blot was again washed 3×5 min with TBS‐Tween and imaged with the ECL system (ThermoScientific # 34080) at Syngene PXi Imager. From the same lysis sample, under the same conditions, ERK 1/2 and β‐tubulin were blotted. For β‐tubulin, the antibody incubation time was adjusted to 2 h at RT.

SHP2 = target: T2, SHP2 (Homo sapiens, UniProt Q06124); assay: Determination of KI using Michaelis-Menten kinetics; assay type: biochemical
T2 construct: catalytic domain of human SHP2 (amino acids 225–541); His10 (N); made in house; host or cells: E. coli B21 (DE3)
T2 sequence (Q06124 225-541): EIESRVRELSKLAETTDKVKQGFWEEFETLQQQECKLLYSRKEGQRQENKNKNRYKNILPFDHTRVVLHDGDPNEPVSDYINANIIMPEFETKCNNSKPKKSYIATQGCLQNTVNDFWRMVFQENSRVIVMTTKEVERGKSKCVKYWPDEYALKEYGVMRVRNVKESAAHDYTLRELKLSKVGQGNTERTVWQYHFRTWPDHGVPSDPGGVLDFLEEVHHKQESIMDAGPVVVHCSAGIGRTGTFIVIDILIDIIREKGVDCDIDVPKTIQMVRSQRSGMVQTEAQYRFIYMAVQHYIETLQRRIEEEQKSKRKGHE
Protocol: as §1
Determination of KI values using Michaelis-Menten kinetics
The assays for the determination of KI values were performed as described under the same conditions as mentioned in the main paper. The initial velocities of the enzymatic reaction inhibited by compound 21 were determined using four different inhibitor concentrations (0, 75, 100 and 150 nM) and four different substrate concentrations (100, 50, 25 and 12.5 µM).
Fluorescence was monitored over 10 min, during which the increase in fluorescence was linear. Initial velocities were calculated and were plotted as a function of the substrate concentration. The inhibition constant KI was determined using Michaelis-Menten kinetics applying GraphPad Prism 9 (Supplementary Figure 31). The obtained data were fitted to three different inhibition models, namely competitive, uncompetitive, and non-competitive inhibition.
The best fit was obtained for the competitive inhibition mode, resulting in the highest correlation […]
Supplementary Figure 31. Michaelis-Menten plots of compound 21 using inhibitor […]
Table 2. Results of Michaelis-Menten plots for different modes of inhibition of compound 21 (competitive, uncompetitive and non-competitive inhibition).
Inhibition model Competitive Uncompetitive Non-competitive
(1 picture or pasted object on this page, not shown here)

[2] = target: T3, catalytic domain of human SHP2 (Homo sapiens, UniProt Q06124); assay: Enzyme activity assay of SHP2 catalytic domain with fluorogenic substrate DiFMUP; assay type: biochemical; conditions: DiFMUP 72 μM (= KM), enzyme 1.5 nM, triplicate; from IC50 by Cheng-Prusoff (IC50/2); read-out: KI SHP2 (Table 2, footnote a)
T3 construct: catalytic domain of human SHP2 (amino acids 225–541); His10 (N); made in house; host or cells: E. coli B21 (DE3)
T3 sequence (Q06124 225-541): T2 sequence (Q06124 225-541)
Protocol: Enzyme activity assays of SHP2 and PTP1B: The catalytic activity of SHP2 catalytic domain and PTP1B were monitored using the fluorogenic substrate DiFMUP (6,8‐difluoro‐4‐methylumbelliferyl phosphate). Phosphatase reactions were performed at room temperature in 384‐well black plate, clear flat bottom, low flange, non‐binding surface (Corning, Cat# 3766) using a final volume of 20 μL and the following assay buffer conditions: 50 mM MOPS, pH=6.5, 200 mM NaCl, 50 μM TCEP, 0.03 % Tween‐20 (freshly added prior to each measurement). Test compounds were dissolved in DMSO or buffer at stock concentrations of 50, 20 or 10 mM and serially diluted. Enzyme (5 nM PTP1B or 2.5 nM SHP2 catalytic domain) and different concentrations of the tested compounds were incubated in buffer for 30–60 min at room temperature. […] Enzymatic reactions were started by adding DiFMUP (Invitrogen, cat# D6567) concentrations matching the experimentally determined KM values of the enzymes of 67 μM (PTP1B) or 72 μM (SHP2). Samples were excited at a wavelength of 360 nm and emitted fluorescence was recorded at 460 for 10 min using a microplate reader (infinite M1000 Pro, Tecan). Initial slope of fluorescence was determined in triplicate and IC50 values were calculated with GraphPad Prism 5. Determined IC50 values were converted into the corresponding KI values applying the Cheng Prusoff equation KI =IC50 /(1+[S]/KM ).

[3] = target: T4, catalytic domain of human PTP1B (Homo sapiens, UniProt P18031); assay: Enzyme activity assay of PTP1B with fluorogenic substrate DiFMUP; assay type: biochemical; conditions: SD; read-out: KI PTP1B
T4 construct: catalytic domain of human PTP1B (amino acids 1–321); His7 (N, cleaved yes); made in house; host or cells: E. coli Rosetta (DE3)
T4 sequence (P18031 1-321): T1 sequence (P18031 1-321)
Protocol: Protein Expression and purification: DNA encoding the catalytic domain of human PTP1B (amino acids 1–321) was subcloned into the pQLinkH vector. The gene encoding the N‐terminal His7‐tagged protein was over‐expressed at 17 °C in E. coli Rosetta (DE3). […] The His7‐tag was cleaved with tobacco etch virus protease at 20 °C prior to the gel‐filtration step. The catalytic domain of human SHP2 (amino acids 225–541) was purified from E. coli B21 (DE3). The overexpressed protein was fused to an N‐terminal His10‐tag. Cells were harvested and resuspended in 25 mM Tris‐HCl (pH=7.5), 50 mM NaCl, 1 % (v/v) Triton X‐100, 10 % (v/v) glycerol, 1 mM DTT. After cell lysis, debris was removed by centrifugation at 12,000 rpm for 30 min. The supernatant was filtered prior to affinity purification with Ni‐NTA agarose (Qiagen). The slurry was washed with 50 mM Tris‐HCl (pH=8.0), 500 mM NaCl supplemented with 25 mM imidazole. Reasonably pure protein was eluted with 200–300 mM imidazole. The purification was completed by size‐exclusion chromatography with a Superdex 75 16/600 column (GE Healthcare) equilibrated with 20 mM HEPES‐NaOH (pH=7.5), 50 mM NaCl, 1 mM DTT.
as §1

Compound	Enhancement of inhibition of PTP1B by fragment in combination with peptide 3 (fragment ligation assay) (PTP1B)	Effect on HGF‐induced tyrosine phosphorylation of ERK 1/2 [1]	Concentration giving (complete) dephosphorylation of Erk / inhibition of Erk phosphorylation [1] [µM]	Ki [2] [µM]	Ki [3] [µM]	also measured
O=P(O)(O)C(F)(F)C1CCNCC1 [Compound F9, 4‐piperidinyl‐difluoromethyl phosphonate]	inactive	–	–	–	–	–
O=C(O)Cc1ccc(N/N=C2\C(=O)N(c3ccc([N+](=O)[O-])cc3)N=C2c2ccc([N+](=O)[O-])cc2)cc1 [Compound 21, (Z)‐2‐(4‐(2‐(1,3‐Bis‐(4‐nitrophenyl)‐5‐oxo‐1,5‐dihydro‐4H‐pyrazol‐4‐ylidene)‐hydrazinyl)‐phenyl)‐acetic acid]	–	decreased	6.25	0.079	–	Ki (SHP2; Michaelis-Menten kinetics at different substrate concentrations, competitive model, read-out: KI SHP2 (Table 2, footnote b) (converted)): 0.032 µM; Mode of inhibition of SHP2 (SHP2; best fit among competitive, uncompetitive, non-competitive models): competitive inhibitor; also recorded: competitive mode of inhibition; KI by Michaelis-Menten kinetics, uncompetitive model (SHP2; inhibitor 0, 75, 100, 150 nM, DiFMUP 100, 50, 25, 12.5 µM, R2 0.8637): 0.0084 µM; Ki (SHP2; inhibitor 0, 75, 100, 150 nM, DiFMUP 100, 50, 25, 12.5 µM, R2 0.8991, read-out: KI by Michaelis-Menten kinetics, non-competitive model): 0.0465 µM; Ki (SHP2; inhibitor 0, 75, 100, 150 nM, DiFMUP 100, 50, 25, 12.5 µM, best fit, R2 0.9007, read-out: KI by Michaelis-Menten kinetics, competitive model): 0.032 µM
O=C1/C(=N\Nc2ccc(NS(=O)(=O)C(F)(F)F)cc2)C(c2ccc([N+](=O)[O-])cc2)=NN1c1ccc([N+](=O)[O-])cc1 [Compound 22]	–	decreased	25	5.9	–	–
CC(=O)N[C@@H](CC(=O)O)C(=O)N[C@@H](C)C(=O)N[C@@H](CC(=O)O)C(=O)N[C@@H](CCC(=O)O)C(=O)NC(CNc1ccc(CC(=O)O)cc1)C(=O)N[C@@H](CC(C)C)C(N)=O (stereo partly drawn) [Compound 15] (Ac-DADE[ξDap](X1)L-NH2)	–	–	–	–	138 ± 21	–
N‐(4‐aminophenyl)‐sulfonic acid [Compound F6]	inactive	–	–	–	–	–
CC(=O)N[C@@H](CC(=O)O)C(=O)N[C@@H](C)C(=O)N[C@@H](CC(=O)O)C(=O)N[C@@H](CCC(=O)O)C(=O)N[C@@H](CNc1ccc(NS(=O)(=O)C(F)(F)F)cc1)C(=O)N[C@@H](CC(C)C)C(N)=O [Compound 18] (Ac-DADE[Dap](X4)L-NH2)	–	–	–	–	202 ± 21	–
